Article PMC3159312 (Enzyme Research, 2011)
Where two headings read alike, the source gives them in different places.

How the values were obtained:
AfUGM [1] = molecular target: T1, AfUGM (Aspergillus fumigatus, UniProt Q4W1X2); experiment: FP binding assay to determine chromophore binding affinities (AfUGM); conditions: for Kd: UDP-fluorescent probes, 15 nM chromophore, serially diluted AfUGM, 0.05 M sodium phosphate pH 7.0, fluorescence anisotropy, read-out: K d for AfUGM; for Binding to AfUGM relative to the UDP-fluorescein analogs (times better): ratio of Kd values
T1 construct: made in house
T1 sequence (Q4W1X2 whole entry): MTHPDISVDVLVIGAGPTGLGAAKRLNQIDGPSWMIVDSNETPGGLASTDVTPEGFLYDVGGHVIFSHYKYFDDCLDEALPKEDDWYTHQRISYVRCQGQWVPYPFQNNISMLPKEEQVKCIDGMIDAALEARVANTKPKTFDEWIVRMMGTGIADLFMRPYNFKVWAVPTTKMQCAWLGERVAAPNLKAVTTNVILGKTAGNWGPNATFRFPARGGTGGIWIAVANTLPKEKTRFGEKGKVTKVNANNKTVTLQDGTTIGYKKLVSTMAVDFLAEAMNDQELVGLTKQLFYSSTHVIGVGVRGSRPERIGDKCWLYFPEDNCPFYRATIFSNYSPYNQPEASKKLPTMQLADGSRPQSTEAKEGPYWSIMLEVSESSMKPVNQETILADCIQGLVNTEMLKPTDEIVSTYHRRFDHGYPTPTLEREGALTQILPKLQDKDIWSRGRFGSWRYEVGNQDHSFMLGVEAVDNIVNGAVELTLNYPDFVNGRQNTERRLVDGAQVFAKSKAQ
Procedure: Solutions containing various concentrations of chromophore in 0.05 M sodium phosphate buffer (pH 7.0) were added to 12 wells in a 96-well half area black bottom plate (Corning) with final volumes of 25 μL. FP was analyzed by a SpectraMax M5 plate reader (Molecular Devices). The parallel fluorescence emission (F=) and perpendicular fluorescence emission (F⊥) at 524 nm (for compounds 1 and 2, excitation at 492 nm) or at 584 nm (for compounds 3 and 4, excitation at 544 nm) were measured by a SpectraMax M5 plate reader (Molecular Devices), and the anisotropy (r) was calculated using (1), the minimal concentration at which stable FP signals with minimal standard deviations were chosen as the optimal concentration for the chromophore.
(1) r=F=−G·F⊥/F=+2G·F⊥ (2) y=m1+(m2−m1) ×(x+Ct+m3)−(x+Ct+m3)^2−4xCt/2Ct
Solutions containing serially diluted AfUGM and 15 nM of chromophore in 0.05 M sodium phosphate buffer (pH 7.0) were incubated at room temperature for 5 minutes. Each experiment was done in triplicate in a 96-well black bottom plate at final volumes of 25 μL. Fluorescence anisotropy was measured as indicated above, and the K d values were obtained by fitting the anisotropy data to (2), where m 1 and m 2 are the minimum and maximum anisotropy values, respectively; m 3 is the K d value, and the total concentration of UDP-chromophore is represented by C t.

MtUGM [2] = molecular target: T2, MtUGM (Mycobacterium tuberculosis, UniProt P9WIQ1); experiment: FP binding assay to determine chromophore binding affinities (MtUGM); conditions: UDP-fluorescent probes, fluorescence anisotropy; read-out: K d for MtUGM
T2 construct: made in house
T2 sequence (P9WIQ1 whole entry): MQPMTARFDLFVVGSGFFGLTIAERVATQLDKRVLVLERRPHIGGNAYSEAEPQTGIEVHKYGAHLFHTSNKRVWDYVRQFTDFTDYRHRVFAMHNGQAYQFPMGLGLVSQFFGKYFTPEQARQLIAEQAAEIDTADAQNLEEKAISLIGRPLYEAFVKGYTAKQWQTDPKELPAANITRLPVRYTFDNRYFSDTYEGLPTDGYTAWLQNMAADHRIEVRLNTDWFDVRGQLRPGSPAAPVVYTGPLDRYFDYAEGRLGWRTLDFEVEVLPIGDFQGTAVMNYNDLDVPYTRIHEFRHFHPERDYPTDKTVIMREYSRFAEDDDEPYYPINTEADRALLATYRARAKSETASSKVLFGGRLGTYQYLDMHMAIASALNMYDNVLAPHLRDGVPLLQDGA

MtUGM [3] = molecular target: T2, MtUGM; experiment: Competitive binding FP inhibition assay (MtUGM)
Procedure: (§1) Each solution was done in triplicate. Anisotropy values were measured and the IC50 values obtained by fitting the data to (4), where m 1 and m 2 are the minimum and maximum anisotropy, respectively; m 3 is the slope, and m4 is the IC50.

AfUGM [4] = molecular target: T1, AfUGM; experiment: Competitive binding experiments using FP inhibition assay (AfUGM, chromophore 3 as probe)
Procedure: as §1

AfUGM [5] = molecular target: T1, AfUGM; conditions: previously determined; read-out: K d for AfUGM by directly monitoring the flavin fluorescence; cited from earlier work
AfUGM [6] = molecular target: T1, AfUGM; experiment: AfUGM activity assay (formation of UDP-Galp from UDP-Galf by HPLC); assay type: biochemical; conditions: 0.5 mM UDP-Galf, 50 nM AfUGM, 37°C, 10 min
Procedure: A 20 μL reaction containing 20 mM dithiothreitol, 0.5 mM UDP-Galf in 25 mM HEPES, 125 mM NaCl buffer, pH 7.5 in the absence of 7 or 8 was initiated by the addition of AfUGM at a final concentration of 50 nM. After incubation at 37°C for 10 min, the reaction was quenched by heat denaturation (95°C for 5 min) in a DNA engine thermocycler (BioRad, Hercules, Calif, USA). The same reaction was also performed in the presence of 7 (500 μM) or 8 (50 μM). The suspension was centrifuged and the supernatant was injected onto a CarboPac PA100 (Dionex) anion-exchange column. The sample was eluted isocratically with 75 mM KH2PO4 (pH 4.5), and the absorbance at 262 nm was monitored to identify fractions of substrate and product.

Structure (SMILES): CN(C)c1ccc2c(-c3ccc(C(=O)NCCCCCCOP(=O)(O)OP(=O)(O)OCC4OC(n5ccc(=O)[nH]c5=O)C(O)C4O)cc3C(=O)[O-])c3ccc(=[N+](C)C)cc-3oc2c1 (stereo not drawn) [Chromophore 3]
- Kd (AfUGM [1]): 2.6 ± 0.2 µM
- Binding to AfUGM relative to the UDP-fluorescein analogs (times better) (AfUGM [1]): ~ 6 times
- Kd (MtUGM [2]): 0.73 ± 0.07 µM

Structure (SMILES): CN(C)c1ccc2c(-c3ccc(C(=O)NCCOP(=O)(O)OP(=O)(O)OCC4OC(n5ccc(=O)[nH]c5=O)C(O)C4O)cc3C(=O)[O-])c3ccc(=[N+](C)C)cc-3oc2c1 (stereo not drawn) [Chromophore 4]
- Kd (AfUGM [1]): 3 ± 0.7 µM
- Binding to AfUGM relative to the UDP-fluorescein analogs (times better) (AfUGM [1]): ~ 6 times
- Kd (MtUGM [2]): > 30 µM

Structure (SMILES): O=c1ccn([C@@H]2O[C@H](COP(=O)(O)OP(=O)(O)O)[C@@H](O)[C@H]2O)c(=O)[nH]1 [UDP]
- Kd (MtUGM [3]; UGM ligands, FP competition, read-out: K d for MtUGM): 15 ± 2 µM
- Kd (AfUGM [4]; read-out: K d for AfUGM): 9 ± 1.7 µM
- Kd (AfUGM [5]): 33 ± 9 µM

Structure (SMILES): O=C(Nc1ccccc1C(=O)O)c1ccc2c(c1)C(=O)N(c1ccc(Br)cc1)C2=O [compound 7]
- Kd (MtUGM [3]): 21 ± 1 µM
- Kd (AfUGM [4]): 140 ± 9 µM
- Inhibition of AfUGM activity (conversion of UDP-Galf to UDP-Galp, HPLC) (AfUGM [6]; inhibitor 500 μM): inhibit the activity of AfUGM

Structure (SMILES): O=C1N/C(=N/S(=O)(=O)c2ccccc2)S/C1=C1/C(=O)Nc2ccc([N+](=O)[O-])cc21 [compound 8]
- Kd (MtUGM [3]): 25 ± 2 µM
- Kd (AfUGM [4]): 11 ± 0.4 µM
- Inhibition of AfUGM activity (conversion of UDP-Galf to UDP-Galp, HPLC) (AfUGM [6]; inhibitor 50 μM): inhibit the activity of AfUGM
